Experimental data: US9012443B2 (Amgen Inc., priority 2011, dated 2015)
Structures can show the parent of a compound that is named as a salt.

What follows are compounds tested against Nav 1.7 (Homo sapiens (Human), UniProt Q15858) (assay: Nav 1.7 in vitro PX assay (PatchXpress whole cell voltage clamp)). Conditions: 293 cells, human Nav1.7, partially inactivated state; read-out: Nav1.7 PX IC50 IP.
Type: cell-based
Protocol: Nav 1.7 In Vitro PX Assay
293 cells stably transfected with human Nav1.7 were recorded in whole cell voltage clamp mode with the PatchXpress automated electrophysiology system (Molecular Devices, LLC, Sunnyvale, Calif.). Compound effects were measured on a partially inactivated state of the sodium channel. Cells were clamped to a holding potential yielding 20 to 50% inactivation. To elicit sodium current, channels were activated by pulsing to −10 mV for 20 msec. […] A single concentration of test compound was applied to cells for a duration of 3 minutes. Peak sodium current was measured at the end of the compound addition period to determine percent inhibition. Three to five cells were tested per concentration, and IC50 curves were fitted to percent inhibition as a function of concentration.

Nav 1.7, sequence (Q15858 whole entry): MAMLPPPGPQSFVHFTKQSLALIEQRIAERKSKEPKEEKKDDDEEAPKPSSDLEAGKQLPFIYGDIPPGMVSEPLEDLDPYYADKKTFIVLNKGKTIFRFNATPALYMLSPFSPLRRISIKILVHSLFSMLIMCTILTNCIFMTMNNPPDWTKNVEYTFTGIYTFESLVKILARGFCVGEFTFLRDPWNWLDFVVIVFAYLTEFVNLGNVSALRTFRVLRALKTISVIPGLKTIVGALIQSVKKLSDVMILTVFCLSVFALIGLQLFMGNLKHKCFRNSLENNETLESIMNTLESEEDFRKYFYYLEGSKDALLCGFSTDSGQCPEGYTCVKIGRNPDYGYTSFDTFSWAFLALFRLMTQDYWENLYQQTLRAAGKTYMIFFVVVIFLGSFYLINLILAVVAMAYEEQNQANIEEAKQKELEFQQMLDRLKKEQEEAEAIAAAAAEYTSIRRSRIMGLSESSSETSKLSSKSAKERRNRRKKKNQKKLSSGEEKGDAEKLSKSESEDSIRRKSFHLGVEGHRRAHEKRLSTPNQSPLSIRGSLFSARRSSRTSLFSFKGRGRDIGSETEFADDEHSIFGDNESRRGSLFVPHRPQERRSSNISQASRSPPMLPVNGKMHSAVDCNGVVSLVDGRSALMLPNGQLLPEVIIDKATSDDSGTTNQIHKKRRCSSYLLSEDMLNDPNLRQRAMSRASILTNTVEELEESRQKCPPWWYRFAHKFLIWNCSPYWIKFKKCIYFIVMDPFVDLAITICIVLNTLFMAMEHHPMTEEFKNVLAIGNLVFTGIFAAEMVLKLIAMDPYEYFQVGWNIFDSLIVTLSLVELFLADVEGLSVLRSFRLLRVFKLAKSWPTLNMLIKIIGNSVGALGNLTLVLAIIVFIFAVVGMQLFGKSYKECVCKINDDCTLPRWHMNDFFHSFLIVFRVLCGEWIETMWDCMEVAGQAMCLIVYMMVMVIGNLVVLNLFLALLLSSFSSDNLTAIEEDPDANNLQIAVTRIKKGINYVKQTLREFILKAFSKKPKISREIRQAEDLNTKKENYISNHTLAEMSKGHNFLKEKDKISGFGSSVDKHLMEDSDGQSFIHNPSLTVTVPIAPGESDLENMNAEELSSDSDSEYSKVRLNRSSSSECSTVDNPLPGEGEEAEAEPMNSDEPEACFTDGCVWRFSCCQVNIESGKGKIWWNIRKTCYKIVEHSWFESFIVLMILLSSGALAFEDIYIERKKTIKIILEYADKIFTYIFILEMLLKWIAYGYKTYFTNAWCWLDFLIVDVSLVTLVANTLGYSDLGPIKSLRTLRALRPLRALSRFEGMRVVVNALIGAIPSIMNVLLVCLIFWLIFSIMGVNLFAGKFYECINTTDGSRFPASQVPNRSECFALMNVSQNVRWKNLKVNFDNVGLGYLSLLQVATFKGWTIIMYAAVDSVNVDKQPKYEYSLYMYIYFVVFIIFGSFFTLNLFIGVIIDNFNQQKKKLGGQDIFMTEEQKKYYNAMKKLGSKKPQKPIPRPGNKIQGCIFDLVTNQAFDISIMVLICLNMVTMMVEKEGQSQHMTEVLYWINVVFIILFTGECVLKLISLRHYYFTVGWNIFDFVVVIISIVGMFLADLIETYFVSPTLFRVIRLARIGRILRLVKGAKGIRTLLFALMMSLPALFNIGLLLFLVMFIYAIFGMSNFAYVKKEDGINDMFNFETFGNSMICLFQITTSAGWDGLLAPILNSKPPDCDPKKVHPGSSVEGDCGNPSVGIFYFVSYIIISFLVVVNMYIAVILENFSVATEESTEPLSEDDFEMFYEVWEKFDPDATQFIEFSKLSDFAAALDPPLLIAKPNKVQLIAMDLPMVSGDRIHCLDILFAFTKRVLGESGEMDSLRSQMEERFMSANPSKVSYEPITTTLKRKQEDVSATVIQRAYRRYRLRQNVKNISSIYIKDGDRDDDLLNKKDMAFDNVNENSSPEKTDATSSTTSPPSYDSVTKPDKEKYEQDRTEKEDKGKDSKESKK

**Q.** With COc1cc(C(F)(F)F)ccc1-c1nc(C)nc2cc(S(=O)(=O)Nc3ccncn3)ccc12 [Example 518, 4-(2-METHOXY-4-(TRIFLUOROMETHYL)PHENYL)-2-METHYL-N-(PYRIMIDIN-4-YL)QUINAZOLINE-7-SULFONAMIDE] as the compound, how does the IC50 read?
**A.** 2600 nM

**Q.** Which IC50 does the source give for COc1ccccc1-c1ccnc2cc(S(=O)(=O)Nc3ccncn3)ccc12 [Example 281, 4-(2-METHOXYPHENYL)-N-(PYRIMIDIN-4-YL)QUINOLINE-7-SULFONAMIDE] here?
**A.** 1930 nM

**Q.** With COc1cc(-c2ccc(C)nc2)ccc1-c1nccc2cc(S(=O)(=O)Nc3ccncn3)ccc12 [Example 477, 1-(2-METHOXY-4-(6-METHYLPYRIDIN-3-YL)PHENYL)-N-(PYRIMIDIN-4-YL)ISOQUINOLINE-6-SULFONAMIDE] as the compound, how does the IC50 read?
**A.** 4040 nM

**Q.** For O=S(=O)(Nc1nccs1)c1ccc2c(-c3ccc(F)cc3C3=CCOC3)nccc2c1 [Example 127, 1-(2-(2,5-DIHYDROFURAN-3-YL)-4-FLUOROPHENYL)-N-(THIAZOL-2-YL)ISOQUINOLINE-6-SULFONAMIDE TRIFLUOROACETATE], which IC50 is on record?
**A.** 2220 nM

**Q.** With COc1ncc(F)cc1-c1nccc2cc(S(=O)(=O)Nc3nccs3)ccc12 [Example 410, 1-(5-FLUORO-2-METHOXYPYRIDIN-3-YL)-N-(THIAZOL-2-YL)ISOQUINOLINE-6-SULFONAMIDE] as the compound, how does the IC50 read?
**A.** 1670 nM

**Q.** Which IC50 does the source give for COc1cc(C(F)F)c(Cl)cc1-c1nccc2cc(S(=O)(=O)Nc3ccncn3)ccc12 [Example 457, 1-(5-CHLORO-4-(DIFLUOROMETHYL)-2-METHOXYPHENYL)-N-(PYRIMIDIN-4-YL)ISOQUINOLINE-6-SULFONAMIDE] here?
**A.** 828 nM

**Q.** For COc1cc(Oc2ccccc2F)ccc1-c1nccc2cc(S(=O)(=O)Nc3ccncn3)ccc12 [Example 465, 1-(4-(2-FLUOROPHENOXY)-2-METHOXYPHENYL)-N-(PYRIMIDIN-4-YL)ISOQUINOLINE-6-SULFONAMIDE], which IC50 is on record?
**A.** 567 nM

**Q.** How did the IC50 turn out when COc1cc(-c2cc(F)cc(F)c2)ccc1-c1nccc2cc(S(=O)(=O)Nc3nnco3)ccc12 [Example 372, 1-(3′,5′-DIFLUORO-3-METHOXY-[1,1′-BIPHENYL]-4-YL)-N-(1,3,4-OXADIAZOL-2-YL)ISOQUINOLINE-6-SULFONAMIDE] was run?
**A.** 16600 nM

**Q.** COc1ccccc1-c1ncc(O)c2cc(S(=O)(=O)Nc3nccs3)ccc12 [Example 234, 4-HYDROXY-1-(2-METHOXYPHENYL)-N-(THIAZOL-2-YL)ISOQUINOLINE-6-SULFONAMIDE 2,2,2-TRIFLUOROACETATE] was tested. Which IC50 did it give?
**A.** 980 nM

**Q.** Which IC50 does the source give for COc1cc(-c2cccnc2)c(F)cc1-c1nccc2cc(S(=O)(=O)Nc3nncs3)ccc12 [Example 367, 1-(5-FLUORO-2-METHOXY-4-(PYRIDIN-3-YL)PHENYL)-N-(1,3,4-THIADIAZOL-2-YL)ISOQUINOLINE-6-SULFONAMIDE] here?
**A.** 1420 nM

**Q.** With COc1cc(-c2ccc3[nH]ccc3c2)ccc1-c1nccc2cc(S(=O)(=O)Nc3ccncn3)ccc12 [Example 489, 1-(4-(1H-INDOL-5-YL)-2-METHOXYPHENYL)-N-(PYRIMIDIN-4-YL)ISOQUINOLINE-6-SULFONAMIDE] as the compound, how does the IC50 read?
**A.** 1830 nM

**Q.** Which IC50 does the source give for COc1ccc(Cl)cc1-c1n[nH]c(=O)c2cc(S(=O)(=O)Nc3ccncn3)ccc12 [Example 504, 1-(5-CHLORO-2-METHOXYPHENYL)-4-OXO-N-(PYRIMIDIN-4-YL)-3,4-DIHYDROPHTHALAZINE-6-SULFONAMIDE] here?
**A.** 1590 nM

**Q.** With COc1nc(C)ccc1-c1nccc2cc(S(=O)(=O)Nc3nccs3)ccc12 [Example 412, 1-(2-METHOXY-6-METHYLPYRIDIN-3-YL)-N-(THIAZOL-2-YL)ISOQUINOLINE-6-SULFONAMIDE] as the compound, how does the IC50 read?
**A.** 1030 nM

**Q.** For COc1cc(-c2cccc(F)c2)c(Cl)cc1-c1nccc2cc(S(=O)(=O)Nc3cnsn3)ccc12 [Example 334, 1-(2-CHLORO-3′-FLUORO-5-METHOXY-[1,1′-BIPHENYL]-4-YL)-N-(1,2,5-THIADIAZOL-3-YL)ISOQUINOLINE-6-SULFONAMIDE], which IC50 is on record?
**A.** 109 nM

**Q.** For Cn1cc(-c2cc(F)ccc2-c2nccc3cc(S(=O)(=O)Nc4nccs4)ccc23)cn1 [Example 129, 1-(4-FLUORO-2-(1-METHYL-1H-PYRAZOL-4-YL)PHENYL)-N-(THIAZOL-2-YL)ISOQUINOLINE-6-SULFONAMIDE TRIFLUOROACETATE], which IC50 is on record?
**A.** 8000 nM

**Q.** With COc1cc(C#N)ccc1-c1nc(C)nc2cc(S(=O)(=O)Nc3nccs3)ccc12 [Example 517, 4-(4-CYANO-2-METHOXYPHENYL)-2-METHYL-N-(THIAZOL-2-YL)QUINAZOLINE-7-SULFONAMIDE] as the compound, how does the IC50 read?
**A.** 1280 nM

**Q.** With COc1cc(-c2cccnc2F)ccc1-c1nccc2cc(S(=O)(=O)Nc3ccncn3)ccc12 [Example 473, 1-(4-(2-FLUOROPYRIDIN-3-YL)-2-METHOXYPHENYL)-N-(PYRIMIDIN-4-YL)ISOQUINOLINE-6-SULFONAMIDE] as the compound, how does the IC50 read?
**A.** 1360 nM

**Q.** COc1nc(OCC(C)C)ccc1-c1nccc2cc(S(=O)(=O)Nc3ccncn3)ccc12 [Example 418, 1-(6-ISOBUTOXY-2-METHOXYPYRIDIN-3-YL)-N-(PYRIMIDIN-4-YL)ISOQUINOLINE-6-SULFONAMIDE] was tested. Which IC50 did it give?
**A.** 2130 nM

**Q.** For COc1cc(C(F)(F)F)ccc1-c1c[nH]c(=O)c2cc(S(=O)(=O)Nc3nccs3)ccc12 [Example 544, 4-(2-METHOXY-4-(TRIFLUOROMETHYL)PHENYL)-1-OXO-N-(THIAZOL-2-YL)-1,2-DIHYDROISOQUINOLINE-7-SULFONAMIDE], which IC50 is on record?
**A.** 709 nM

**Q.** Which IC50 does the source give for COc1cc(C(F)(F)F)ccc1-c1ccnc2cc(S(=O)(=O)Nc3nccs3)ncc12 [Example 294, 4-(2-METHOXY-4-(TRIFLUOROMETHYL)PHENYL)-N-(THIAZOL-2-YL)-1,6-NAPHTHYRIDINE-7-SULFONAMIDE] here?
**A.** 2500 nM

**Q.** How did the IC50 turn out when COc1cc(-c2cccnc2C)ccc1-c1nccc2cc(S(=O)(=O)Nc3ccncn3)ccc12 [Example 476, 1-(2-METHOXY-4-(2-METHYLPYRIDIN-3-YL)PHENYL)-N-(PYRIMIDIN-4-YL)ISOQUINOLINE-6-SULFONAMIDE] was run?
**A.** 2890 nM

**Q.** For COc1cc(C(F)(F)F)ccc1-c1nccc2cc(S(=O)(=O)Nc3nnc(Cl)s3)ccc12 [Example 425, N-(5-CHLORO-1,3,4-THIADIAZOL-2-YL)-1-(2-METHOXY-4-(TRIFLUOROMETHYL)PHENYL)ISOQUINOLINE-6-SULFONAMIDE], which IC50 is on record?
**A.** 2210 nM

**Q.** How did the IC50 turn out when Cc1ccccc1-c1nccc2cc(S(=O)(=O)Nc3nccs3)ccc12 [Example 178, N-(THIAZOL-2-YL)-1-(O-TOLYL)ISOQUINOLINE-6-SULFONAMIDE] was run?
**A.** 1850 nM

**Q.** With COc1cc(C#N)ccc1-c1ccnc2cc(S(=O)(=O)Nc3ccncn3)ccc12 [Example 280, 4-(4-CYANO-2-METHOXYPHENYL)-N-(PYRIMIDIN-4-YL)QUINOLINE-7-SULFONAMIDE] as the compound, how does the IC50 read?
**A.** 4450 nM

**Q.** CC(C#N)Oc1cc(F)ccc1-c1nccc2cc(S(=O)(=O)Nc3nccs3)ccc12 (stereo not shown) [Example 415, 1-(2-(1-CYANOETHOXY)-4-FLUOROPHENYL)-N-(THIAZOL-2-YL)ISOQUINOLINE-6-SULFONAMIDE] was tested. Which IC50 did it give?
**A.** 1070 nM

**Q.** Which IC50 does the source give for COc1ncc(C(F)(F)F)cc1-c1nccc2cc(S(=O)(=O)Nc3nccs3)ccc12 [Example 409, 1-(2-METHOXY-5-(TRIFLUOROMETHYL)PYRIDIN-3-YL)-N-(THIAZOL-2-YL)ISOQUINOLINE-6-SULFONAMIDE] here?
**A.** 690 nM

**Q.** With COc1cc(C(F)(F)F)ccc1-c1nccc2cc(S(=O)(=O)Nc3nc(C(F)(F)F)cs3)ccc12 [Example 428, 1-(2-METHOXY-4-(TRIFLUOROMETHYL)PHENYL)-N-(4-(TRIFLUOROMETHYL)THIAZOL-2-YL)ISOQUINOLINE-6-SULFONAMIDE] as the compound, how does the IC50 read?
**A.** 4570 nM

**Q.** Which IC50 does the source give for COc1nc(Cl)ccc1-c1nccc2cc(S(=O)(=O)Nc3nccs3)ccc12 [Example 408, 1-(6-CHLORO-2-METHOXYPYRIDIN-3-YL)-N-(THIAZOL-2-YL)ISOQUINOLINE-6-SULFONAMIDE] here?
**A.** 986 nM

**Q.** Which IC50 does the source give for COc1ccc(C2=CCOCC2)cc1-c1nccc2cc(S(=O)(=O)Nc3ccncn3)ccc12 [Example 353, 1-(5-(3,6-DIHYDRO-2H-PYRAN-4-YL)-2-METHOXYPHENYL)-N-(PYRIMIDIN-4-YL)ISOQUINOLINE-6-SULFONAMIDE] here?
**A.** 5170 nM

**Q.** With COc1nc(-c2ccc(F)c(F)c2)ccc1-c1nccc2cc(S(=O)(=O)Nc3ccncn3)ccc12 [Example 499, 1-(6-(3,4-DIFLUOROPHENYL)-2-METHOXYPYRIDIN-3-YL)-N-(PYRIMIDIN-4-YL)ISOQUINOLINE-6-SULFONAMIDE] as the compound, how does the IC50 read?
**A.** 830 nM

**Q.** For COc1cc(C(F)(F)F)ccc1-c1n[nH]c(=O)c2cc(S(=O)(=O)Nc3ccncn3)ccc12 [Example 506, 1-(2-METHOXY-4-(TRIFLUOROMETHYL)PHENYL)-4-OXO-N-(PYRIMIDIN-4-YL)-3,4-DIHYDROPHTHALAZINE-6-SULFONAMIDE], which IC50 is on record?
**A.** 3000 nM

**Q.** Which IC50 does the source give for COc1ncc(Cl)cc1-c1ncnc2cc(S(=O)(=O)Nc3nccs3)ccc12 [Example 541, 4-(5-CHLORO-2-METHOXYPYRIDIN-3-YL)-N-(THIAZOL-2-YL)QUINAZOLINE-7-SULFONAMIDE] here?
**A.** 1800 nM

**Q.** With O=S(=O)(Nc1nccs1)c1ccc2c(-c3cc(F)ccc3OC(F)F)nccc2c1 [Example 413, 1-(2-(DIFLUOROMETHOXY)-5-FLUOROPHENYL)-N-(THIAZOL-2-YL)ISOQUINOLINE-6-SULFONAMIDE] as the compound, how does the IC50 read?
**A.** 830 nM

**Q.** For COc1cc(C(F)F)c(OC)cc1-c1nccc2cc(S(=O)(=O)Nc3ccncn3)ccc12 [Example 453, 1-(4-(DIFLUOROMETHYL)-2,5-DIMETHOXYPHENYL)-N-(PYRIMIDIN-4-YL)ISOQUINOLINE-6-SULFONAMIDE], which IC50 is on record?
**A.** 4880 nM

**Q.** How did the IC50 turn out when COc1cc(-c2c(C)ccnc2F)ccc1-c1nccc2cc(S(=O)(=O)Nc3ccncn3)ccc12 [Example 480, 1-(4-(2-FLUORO-4-METHYLPYRIDIN-3-YL)-2-METHOXYPHENYL)-N-(PYRIMIDIN-4-YL)ISOQUINOLINE-6-SULFONAMIDE] was run?
**A.** 2770 nM

**Q.** Cc1cc(C#N)ccc1-c1ncnc2cc(S(=O)(=O)Nc3nccs3)ccc12 [Example 542] was tested. Which IC50 did it give?
**A.** 5020 nM

**Q.** Which IC50 does the source give for COc1cc(C(F)(F)F)ccc1-c1ccnc2c(C)c(S(=O)(=O)Nc3nccs3)ccc12 [Example 328, 4-(2-METHOXY-4-(TRIFLUOROMETHYL)PHENYL)-8-METHYL-N-(THIAZOL-2-YL)QUINOLINE-7-SULFONAMIDE] here?
**A.** 6870 nM
